Patent US8148538B2, “N-alkyl-heterocyclyl carboxamide derivatives” (Bayer Cropscience AG, priority 2005, dated 2012)

Key:
[1] = test system: Alternaria brassicae; assay: In vivo test on Alternaria brassicae (leaf spot of crucifers), preventive spray on radish plants; conditions: under these conditions (radish plants, comparison compound of prior art)
Experimental: The active ingredient tested is prepared by homogenisation in DMSO (5% of the final volume), acetone (10% of the final volume) and tween 80 10% (5 μl/mg active ingredient). Radish plants (Pernot variety) in starter cups, sown on a 50/50 peat soil-pozzolana substrate and grown at 18-20° C., are treated at the cotyledon stage by spraying with the aqueous suspension described above. Plants, used as controls, are treated with an aqueous solution not containing the active material. After 24 hours, the plants are contaminated by spraying them with an aqueous suspension of Alternaria brassicae spores (40,000 spores per cm^3). The spores are collected from a 12 to 13 days-old culture. The contaminated radish plants are incubated for 6-7 days at about 18° C., under a humid atmosphere. Grading is carried out 6 to 7 days after the contamination, in comparison with the control plants. Under these conditions, good (at least 70%) or total protection is observed at a dose of 500 ppm with the following compounds: 1-2, 2-2, 2-5, 3-2, 3-5, 4-3, 4-4, 4-5, 4-6, 5-4, 5-5, 5-7, 6-1, 7-1, 7-3, 7-4, 7-6, 9-3, 10-3, 10-4, 5, 10-6, 10-8, 11-1, 11-2, 12-2, 13-1, 13-3, 13-5, 15-2, 15-3, 16-4, 19-1, 20-1, 21-1, 21-2, 22-2, 22-3, 23-1, 24-1, 24-2, 25-1, 25-3, 26-2, 27-1, 28-2, 30-1, 30-2, 31-1, 32-1 and 33-2.

[2] = test system: Botrytis cinerea; assay: In vivo test on Botrytis cinerea (cucumber grey mould), preventive spray on cucumber plants; conditions: under these conditions (cucumber plants, comparison compounds of prior art)
Experimental: (§1) The active ingredient tested is prepared by homogenisation in DMSO (5% of the final volume), acetone (10% of the final volume) and tween 80 10% (5 μl/mg active ingredient).
(§2) Cucumber plants (Marketer variety) in starter cups, sown on a 50/50 peat soil-pozzolana substrate and grown at 18-20° C., are treated at the cotyledon Z11 stage by spraying with the aqueous suspension described above. Plants, used as controls, are treated with an aqueous solution not containing the active material.
After 24 hours, the plants are contaminated by depositing drops of an aqueous suspension of Botrytis cinerea spores (150,000 spores per ml) on upper surface of the leaves. The spores are collected from a 15-day-old culture and are suspended in a nutrient solution composed of: • 20 g/L of gelatin • 50 g/L of cane sugar • 2 g/L of NH4NO3 • 1 g/L of KH2PO4
The contaminated cucumber plants are settled for 5/7 days in a climatic room at 15-11° C. (day/night) and at 80% relative humidity.

[3] = test system: Sphaerotheca fuliginea; assay: In vivo test on Sphaerotheca fuliginea (powdery mildew), preventive spray on gherkin plants; conditions: under these conditions (gherkin plants, comparison compounds of prior art)
Experimental: as §1
as §2, with “Gherkin” for “Cucumber”, “(Vert petit de Paris” for “(Marketer”, “20° C./23°” for “18-20°”, “at” for “at the”
After 24 hours, the plants are contaminated by spraying them with an aqueous suspension of Sphaerotheca fuliginea spores (100 000 spores per ml). The spores are collected from a contaminated plants. The contaminated gerkhin plants are incubated at about 20° C./25° C. and at 60/70% relative humidity.

[4] = test system: Pyrenophora teres; assay: In vivo test on Pyrenophora teres (barley net blotch), preventive spray on barley plants; conditions: under these conditions (barley plants, comparison compound of prior art)
Experimental: as §1
as §2, with “Barley” for “Cucumber”, “(Express” for “(Marketer”, “12°” for “18-20°”, “1-leaf” for “cotyledon Z11”, “stage (10 cm tall)” for “stage”
After 24 hours, the plants are contaminated by spraying them with an aqueous suspension of Pyrenophora teres spores (12,000 spores per ml). The spores are collected from a 12-day-old culture. The contaminated barley plants are incubated for 24 hours at about 20° C. and at 100% relative humidity, and then for 12 days at 80% relative humidity.

SMILES	activity against Alternaria brassicae [1]	activity against Botrytis cinerea [2]	activity against Sphaerotheca fuliginea [3]	activity against Pyrenophora teres [4]
CCCCCCCCNC(=O)c1snc(Cl)c1Cl [4-dichloro-N-octylisothiazol-5-carboxamide]	did not show any activity	did not show any activity	–	–
Cc1nnsc1C(=O)NC(C)C [N-isopropyl-4-methyl-1,2,3-thiadiazole-5-carboxamide]	–	did not show any activity	did not show any activity	–
CCC(C)NC(=O)c1cc(C)oc1C (stereo not shown) [N-sec-butyl-2,5-dimethyl-3-furamide]	–	did not show any activity	did not show any activity	did not show any activity
